Laboratory results as given in patent US20240270720A1, “INDAZOLE YL BENZIMIDAZOLE DERIVATIVE OR PHARMACEUTICALLY ACCEPTABLE SALT THEREOF, AND USE THEREOF” (INDUSTRY-UNIVERSITY COOPERATION FOUNDATION HANYANG …, priority 2021, published 2024).

Assays:
[1] = target: PKA (Homo sapiens, UniProt P17612); assay: Protein kinase profiling (Kinase HotSpot)
Procedure: (§1) The analysis protocol was as follows: In a final reaction volume of 25 μL, a peptide substrate, [[sequence]], 5 μM, ATP 10 μM, and FLT3(h) (5 to 10 mU) were incubated with 25 mM Tris pH 7.5, 0.02 mM EGTA, 0.66 mg/mL myelin basic protein, 10 mM Mg acetate and [γ-33P-ATP] (a concentration of approximately 500 cpm/pmol was required for specific activity). The reaction was initiated by adding the Mg-ATP mixture. After incubation at room temperature for 40 minutes, the reaction was stopped by adding 5 μL of a 3% phosphoric acid solution. Thereafter, 10 μL of the reactant was spotted on a P30 filter mat and washed three times for 5 minutes in 75 mM phosphoric acid and once in methanol before drying and scintillation counting.

[2] = target: FLT3-ITD (Homo sapiens, UniProt P36888); assay: Protein kinase profiling (Kinase HotSpot); format: biochemical; conditions: single dose 1 μM
[3] = target: FYN (Homo sapiens, UniProt P06241); assay: Protein kinase profiling (Kinase HotSpot)
Procedure: (§2) Reaction Biology Corp. Kinase HotSpot SM service (www.reactionbiology.com) was used to determine IC50 values for all compounds and kinase profiles. The analysis protocol was as follows: In a final reaction volume of 25 μL, a peptide substrate, [[sequence]], 5 μM, ATP 10 μM, and FLT3(h) (5 to 10 mU) were incubated with 25 mM Tris pH 7.5, 0.02 mM EGTA, 0.66 mg/mL myelin basic protein, 10 mM Mg acetate and [γ-33P-ATP] (a concentration of approximately 500 cpm/pmol was required for specific activity). The reaction was initiated by adding the Mg-ATP mixture. After incubation at room temperature for 40 minutes, the reaction was stopped by adding 5 μL of a 3% phosphoric acid solution. Thereafter, 10 μL of the reactant was spotted on a P30 filter mat and washed three times for 5 minutes in 75 mM phosphoric acid and once in methanol before drying and scintillation counting.

[4] = target: T1, ALK (Homo sapiens, UniProt Q9UM73); assay: Protein kinase profiling (Kinase HotSpot); format: biochemical; conditions: single dose 1 μM
T1 construct: purchased Reaction Biology Corp. (Kinase HotSpot service)
Procedure: as §2

[5] = target: T2, BTK (Homo sapiens, UniProt Q06187); assay: Protein kinase profiling (Kinase HotSpot); format: biochemical; conditions: single dose 1 μM
T2 construct: purchased Reaction Biology Corp. (Kinase HotSpot service)
Procedure: as §2

[6] = target: T3, SYK (Homo sapiens, UniProt P43405); assay: Protein kinase profiling (Kinase HotSpot); format: biochemical; conditions: single dose 1 μM
T3 construct: purchased Reaction Biology Corp. (Kinase HotSpot service)
Procedure: as §1

[7] = target: T4, AXL (R499C) (Homo sapiens, UniProt P30530, R499C); assay: Protein kinase profiling (Kinase HotSpot); format: biochemical; conditions: single dose 1 μM
T4 construct: purchased Reaction Biology Corp. (Kinase HotSpot service)
Procedure: as §2

[8] = target: T5, FLT3 (Y591_V592 ins VDFREYEYD) (Homo sapiens, UniProt P36888, INS591VDFREYEYD); assay: Kinase HotSpot radiometric kinase assay (Reaction Biology); format: biochemical
T5 construct: purchased Reaction Biology Corp. (Kinase HotSpot service)
Procedure: as §2

[9] = target: T6, CAMKK1 (Homo sapiens, UniProt Q8N5S9); assay: Protein kinase profiling (Kinase HotSpot); format: biochemical
T6 construct: purchased Reaction Biology Corp. (Kinase HotSpot service)
Procedure: as §2

[10] = target: T7, AKT1 (Homo sapiens, UniProt P31749); assay: Protein kinase profiling (Kinase HotSpot); format: biochemical; conditions: single dose 1 μM
T7 construct: purchased Reaction Biology Corp. (Kinase HotSpot service)
Procedure: as §2

[11] = target: T8, FMS (Homo sapiens, UniProt P07333); assay: Protein kinase profiling (Kinase HotSpot); format: biochemical; conditions: single dose 1 μM
T8 construct: purchased Reaction Biology Corp. (Kinase HotSpot service)
Procedure: as §2

[12] = target: T9, LCK (Homo sapiens, UniProt P06239); assay: Protein kinase profiling (Kinase HotSpot); format: biochemical; conditions: single dose 1 μM
T9 construct: purchased Reaction Biology Corp. (Kinase HotSpot service)
Procedure: as §1

[13] = target: T10, c-MER (Homo sapiens, UniProt Q12866); assay: Protein kinase profiling (Kinase HotSpot); format: biochemical; conditions: single dose 1 μM
T10 construct: purchased Reaction Biology Corp. (Kinase HotSpot service)
Procedure: as §1

[14] = target: JAK3 (Homo sapiens, UniProt P52333); assay: Protein kinase profiling (Kinase HotSpot)
Procedure: as §1

[15] = target: T11, EGFR (Homo sapiens, UniProt P00533); assay: Protein kinase profiling (Kinase HotSpot); format: biochemical; conditions: single dose 1 μM
T11 construct: purchased Reaction Biology Corp. (Kinase HotSpot service)
Procedure: as §1

[16] = target: T12, TRKC (Homo sapiens, UniProt Q16288); assay: Protein kinase profiling (Kinase HotSpot); format: biochemical
T12 construct: purchased Reaction Biology Corp. (Kinase HotSpot service)
Procedure: as §2

[17] = target: T13, BRAF (V599E) (Homo sapiens, UniProt P15056, V600E); assay: Protein kinase profiling (Kinase HotSpot); format: biochemical
T13 construct: purchased Reaction Biology Corp. (Kinase HotSpot service)
Procedure: as §2

[18] = target: Aurora A (Homo sapiens, UniProt O14965); assay: Protein kinase profiling (Kinase HotSpot)
Procedure: as §2

[19] = target: T14, ABL1 (Homo sapiens, UniProt P00519); assay: Protein kinase profiling (Kinase HotSpot); format: biochemical
T14 construct: purchased Reaction Biology Corp. (Kinase HotSpot service)
Procedure: as §2

[20] = target: T15, IGF1R (Homo sapiens, UniProt P08069); assay: Protein kinase profiling (Kinase HotSpot); format: biochemical; conditions: single dose 1 μM
T15 construct: purchased Reaction Biology Corp. (Kinase HotSpot service)
Procedure: as §2

[21] = target: T16, FLT3 (R595_E596 ins EY) (Homo sapiens, UniProt P36888, INS595EY); assay: Kinase HotSpot radiometric kinase assay (Reaction Biology); format: biochemical
T16 construct: purchased Reaction Biology Corp. (Kinase HotSpot service)
Procedure: as §2

[22] = target: c-Kit (Homo sapiens, UniProt P10721); assay: Protein kinase profiling (Kinase HotSpot)
Procedure: as §2

[23] = target: T17, c-Src (Homo sapiens, UniProt P12931); assay: Protein kinase profiling (Kinase HotSpot); format: biochemical; conditions: single dose 1 μM
T17 construct: purchased Reaction Biology Corp. (Kinase HotSpot service)
Procedure: as §1

[24] = target: T18, TYRO3/SKY (Homo sapiens, UniProt Q06418); assay: Protein kinase profiling (Kinase HotSpot); format: biochemical; conditions: single dose 1 μM
T18 construct: purchased Reaction Biology Corp. (Kinase HotSpot service)

[25] = target: FGFR3 (Homo sapiens, UniProt P22607); assay: Protein kinase profiling (Kinase HotSpot)
Procedure: as §2

[26] = target: T19, AXL (Homo sapiens, UniProt P30530); assay: Protein kinase profiling (Kinase HotSpot); format: biochemical; conditions: single dose 1 μM
T19 construct: purchased Reaction Biology Corp. (Kinase HotSpot service)
Procedure: as §2

[27] = target: GSK3b (Homo sapiens, UniProt P49841); assay: Protein kinase profiling (Kinase HotSpot)
Procedure: as §2

[28] = target: FLT3 (ITD)-NPOS (Homo sapiens, UniProt P36888); assay: Kinase HotSpot radiometric kinase assay (Reaction Biology); format: biochemical; conditions: single dose 1 μM
Procedure: Reaction Biology Corp. Kinase HotSpot SM service (www.reactionbiology.com) was used to determine IC50 values for all compounds and kinase profiles. […] The reaction was initiated by adding the Mg-ATP mixture. After incubation at room temperature for 40 minutes, the reaction was stopped by adding 5 μL of a 3% phosphoric acid solution. Thereafter, 10 μL of the reactant was spotted on a P30 filter mat and washed three times for 5 minutes in 75 mM phosphoric acid and once in methanol before drying and scintillation counting.

[29] = target: T20, RON/MST1R (Homo sapiens, UniProt Q04912); assay: Protein kinase profiling (Kinase HotSpot); format: biochemical; conditions: single dose 1 μM
T20 construct: purchased Reaction Biology Corp. (Kinase HotSpot service)
Procedure: as §1

[30] = system: most other kinases; assay: Protein kinase profiling, 42 different kinases (summary); format: biochemical; conditions: 1 μM; kinases of the 42-kinase panel other than FLT3
[31] = target: ROS/ROS1 (Homo sapiens, UniProt P08922); assay: Protein kinase profiling (Kinase HotSpot)
Procedure: as §1

[32] = target: T21, c-MET (Homo sapiens, UniProt P08581); assay: Protein kinase profiling (Kinase HotSpot); format: biochemical; conditions: single dose 1 μM
T21 construct: purchased Reaction Biology Corp. (Kinase HotSpot service)
Procedure: as §1

[33] = target: T22, KDR/VEGFR2 (Homo sapiens, UniProt P35968); assay: Protein kinase profiling (Kinase HotSpot); format: biochemical; conditions: single dose 1 μM
T22 construct: purchased Reaction Biology Corp. (Kinase HotSpot service)
Procedure: as §1

[34] = target: T23, PLK1 (Homo sapiens, UniProt P53350); assay: Protein kinase profiling (Kinase HotSpot); format: biochemical; conditions: single dose 1 μM
T23 construct: purchased Reaction Biology Corp. (Kinase HotSpot service)
Procedure: as §1

[35] = target: T24, ERK1 (Homo sapiens, UniProt P27361); assay: Protein kinase profiling (Kinase HotSpot); format: biochemical
T24 construct: purchased Reaction Biology Corp. (Kinase HotSpot service)
Procedure: as §1

[36] = target: LYN (Homo sapiens, UniProt P07948); assay: Protein kinase profiling (Kinase HotSpot)
Procedure: as §1

[37] = target: T25, MEK1 (Homo sapiens, UniProt Q02750); assay: Protein kinase profiling (Kinase HotSpot); format: biochemical; conditions: single dose 1 μM
T25 construct: purchased Reaction Biology Corp. (Kinase HotSpot service)
Procedure: as §1

c-Kit, sequence (P10721 26-976): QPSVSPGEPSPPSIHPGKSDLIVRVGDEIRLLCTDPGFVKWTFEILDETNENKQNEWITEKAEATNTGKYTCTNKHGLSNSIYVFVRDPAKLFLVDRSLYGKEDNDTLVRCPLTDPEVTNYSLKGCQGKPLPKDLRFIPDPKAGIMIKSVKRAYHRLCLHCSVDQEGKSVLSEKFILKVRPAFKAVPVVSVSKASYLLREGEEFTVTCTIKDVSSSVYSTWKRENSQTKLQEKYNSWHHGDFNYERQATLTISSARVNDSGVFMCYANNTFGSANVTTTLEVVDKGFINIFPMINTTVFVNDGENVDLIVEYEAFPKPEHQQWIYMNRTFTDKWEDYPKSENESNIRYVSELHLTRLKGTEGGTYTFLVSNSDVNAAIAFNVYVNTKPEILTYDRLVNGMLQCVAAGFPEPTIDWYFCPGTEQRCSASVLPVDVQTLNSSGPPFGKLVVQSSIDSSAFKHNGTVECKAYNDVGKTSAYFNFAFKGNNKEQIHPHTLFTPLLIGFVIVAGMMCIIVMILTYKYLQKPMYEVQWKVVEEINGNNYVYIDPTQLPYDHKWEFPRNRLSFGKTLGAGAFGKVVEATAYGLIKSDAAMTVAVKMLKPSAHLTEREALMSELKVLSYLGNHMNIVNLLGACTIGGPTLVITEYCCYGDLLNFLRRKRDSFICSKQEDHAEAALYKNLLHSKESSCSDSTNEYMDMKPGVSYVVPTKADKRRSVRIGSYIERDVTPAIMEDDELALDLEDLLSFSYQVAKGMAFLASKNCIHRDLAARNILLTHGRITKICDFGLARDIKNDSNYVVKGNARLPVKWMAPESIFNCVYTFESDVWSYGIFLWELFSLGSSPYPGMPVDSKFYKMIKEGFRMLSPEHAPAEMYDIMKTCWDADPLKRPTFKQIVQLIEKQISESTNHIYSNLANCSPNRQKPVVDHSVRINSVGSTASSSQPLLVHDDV
T12 sequence (Q16288 32-839): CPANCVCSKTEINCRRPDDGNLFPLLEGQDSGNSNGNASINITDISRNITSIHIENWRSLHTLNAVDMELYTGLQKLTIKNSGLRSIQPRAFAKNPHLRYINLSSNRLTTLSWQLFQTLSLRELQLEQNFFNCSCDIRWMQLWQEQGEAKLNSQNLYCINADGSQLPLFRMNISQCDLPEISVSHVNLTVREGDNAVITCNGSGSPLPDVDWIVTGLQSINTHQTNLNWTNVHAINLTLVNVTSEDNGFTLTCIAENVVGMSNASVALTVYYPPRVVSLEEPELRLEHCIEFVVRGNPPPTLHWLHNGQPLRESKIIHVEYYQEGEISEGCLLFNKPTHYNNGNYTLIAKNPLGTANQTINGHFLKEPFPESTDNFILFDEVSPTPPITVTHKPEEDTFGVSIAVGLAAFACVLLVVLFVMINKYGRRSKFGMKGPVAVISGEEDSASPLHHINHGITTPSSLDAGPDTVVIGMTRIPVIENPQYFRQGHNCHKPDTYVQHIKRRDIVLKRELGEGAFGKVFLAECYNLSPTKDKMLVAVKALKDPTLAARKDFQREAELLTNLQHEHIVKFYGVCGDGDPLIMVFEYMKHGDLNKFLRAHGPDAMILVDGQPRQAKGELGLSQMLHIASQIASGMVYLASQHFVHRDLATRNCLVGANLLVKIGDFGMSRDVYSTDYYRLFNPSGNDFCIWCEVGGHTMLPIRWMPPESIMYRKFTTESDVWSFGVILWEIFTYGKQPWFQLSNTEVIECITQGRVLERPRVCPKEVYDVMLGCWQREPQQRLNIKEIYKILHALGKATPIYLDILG
T16 sequence (P36888 with tags, fused parts or gaps INS595EY limits assumed): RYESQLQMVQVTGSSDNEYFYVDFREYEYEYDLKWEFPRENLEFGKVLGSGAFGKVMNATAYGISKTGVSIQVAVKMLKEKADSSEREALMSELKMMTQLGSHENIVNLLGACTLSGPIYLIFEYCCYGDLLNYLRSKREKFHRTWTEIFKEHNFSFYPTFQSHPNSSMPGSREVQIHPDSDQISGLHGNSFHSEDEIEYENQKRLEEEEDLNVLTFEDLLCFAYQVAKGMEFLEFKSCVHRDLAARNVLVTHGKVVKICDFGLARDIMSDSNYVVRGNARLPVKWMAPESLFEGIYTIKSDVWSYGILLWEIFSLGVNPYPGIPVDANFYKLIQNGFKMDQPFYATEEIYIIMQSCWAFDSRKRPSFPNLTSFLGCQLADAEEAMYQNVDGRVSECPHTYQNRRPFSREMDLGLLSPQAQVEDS
T14 sequence (P00519 whole entry): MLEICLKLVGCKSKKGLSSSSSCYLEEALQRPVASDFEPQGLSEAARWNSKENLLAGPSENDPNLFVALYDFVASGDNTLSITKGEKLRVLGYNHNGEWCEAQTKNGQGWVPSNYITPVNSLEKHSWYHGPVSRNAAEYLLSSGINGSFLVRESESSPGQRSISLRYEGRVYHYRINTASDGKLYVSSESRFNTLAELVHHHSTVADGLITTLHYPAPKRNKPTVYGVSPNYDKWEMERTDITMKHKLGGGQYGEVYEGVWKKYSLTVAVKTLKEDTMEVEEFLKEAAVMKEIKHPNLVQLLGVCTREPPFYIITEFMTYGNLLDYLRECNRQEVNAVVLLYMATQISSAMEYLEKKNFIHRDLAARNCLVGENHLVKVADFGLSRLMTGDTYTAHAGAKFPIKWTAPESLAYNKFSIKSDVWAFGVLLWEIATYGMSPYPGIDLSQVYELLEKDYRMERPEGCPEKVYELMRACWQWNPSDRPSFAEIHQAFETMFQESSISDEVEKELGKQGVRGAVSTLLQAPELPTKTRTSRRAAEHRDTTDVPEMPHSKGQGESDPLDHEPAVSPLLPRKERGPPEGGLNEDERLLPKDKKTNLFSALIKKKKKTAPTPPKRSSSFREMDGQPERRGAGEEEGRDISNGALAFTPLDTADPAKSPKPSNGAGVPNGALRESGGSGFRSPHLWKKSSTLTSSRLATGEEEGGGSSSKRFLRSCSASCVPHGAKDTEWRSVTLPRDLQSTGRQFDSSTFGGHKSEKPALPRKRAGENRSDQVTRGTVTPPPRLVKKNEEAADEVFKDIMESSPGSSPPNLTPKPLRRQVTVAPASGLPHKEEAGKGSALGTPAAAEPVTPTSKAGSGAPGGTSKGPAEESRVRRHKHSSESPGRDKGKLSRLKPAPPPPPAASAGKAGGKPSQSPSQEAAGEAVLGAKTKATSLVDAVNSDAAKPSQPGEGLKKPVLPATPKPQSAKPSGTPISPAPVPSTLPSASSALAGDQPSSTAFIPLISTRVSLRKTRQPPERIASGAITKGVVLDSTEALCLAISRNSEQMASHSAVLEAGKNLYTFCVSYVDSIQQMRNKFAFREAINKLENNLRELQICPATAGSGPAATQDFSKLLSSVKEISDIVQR
T5 sequence (P36888 with tags, fused parts or gaps with the stated changes limits assumed): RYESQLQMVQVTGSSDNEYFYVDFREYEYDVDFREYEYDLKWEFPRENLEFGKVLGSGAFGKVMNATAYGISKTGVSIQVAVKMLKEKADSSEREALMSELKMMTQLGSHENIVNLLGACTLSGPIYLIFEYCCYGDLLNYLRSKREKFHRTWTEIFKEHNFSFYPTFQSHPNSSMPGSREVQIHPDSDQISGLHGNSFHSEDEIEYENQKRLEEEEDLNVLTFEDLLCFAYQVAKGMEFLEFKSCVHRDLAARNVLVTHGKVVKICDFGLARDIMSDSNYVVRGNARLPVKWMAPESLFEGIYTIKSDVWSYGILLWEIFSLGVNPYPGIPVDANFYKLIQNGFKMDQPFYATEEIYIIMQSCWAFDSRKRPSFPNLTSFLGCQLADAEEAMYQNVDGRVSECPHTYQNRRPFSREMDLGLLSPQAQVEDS
T6 sequence (Q8N5S9 whole entry): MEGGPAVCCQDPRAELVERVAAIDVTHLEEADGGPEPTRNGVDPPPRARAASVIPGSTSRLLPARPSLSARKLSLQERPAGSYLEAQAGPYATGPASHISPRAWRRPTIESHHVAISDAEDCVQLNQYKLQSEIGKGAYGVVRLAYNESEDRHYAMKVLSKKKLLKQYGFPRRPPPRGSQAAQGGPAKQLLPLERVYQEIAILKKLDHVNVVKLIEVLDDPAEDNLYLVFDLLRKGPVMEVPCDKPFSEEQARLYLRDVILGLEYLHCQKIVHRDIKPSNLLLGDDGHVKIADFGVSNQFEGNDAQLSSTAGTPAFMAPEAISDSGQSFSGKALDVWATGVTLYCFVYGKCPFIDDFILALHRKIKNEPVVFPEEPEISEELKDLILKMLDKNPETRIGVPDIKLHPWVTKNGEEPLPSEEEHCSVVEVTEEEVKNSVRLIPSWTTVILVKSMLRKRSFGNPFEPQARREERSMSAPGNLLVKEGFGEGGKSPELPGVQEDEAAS
Aurora A, sequence (O14965 whole entry): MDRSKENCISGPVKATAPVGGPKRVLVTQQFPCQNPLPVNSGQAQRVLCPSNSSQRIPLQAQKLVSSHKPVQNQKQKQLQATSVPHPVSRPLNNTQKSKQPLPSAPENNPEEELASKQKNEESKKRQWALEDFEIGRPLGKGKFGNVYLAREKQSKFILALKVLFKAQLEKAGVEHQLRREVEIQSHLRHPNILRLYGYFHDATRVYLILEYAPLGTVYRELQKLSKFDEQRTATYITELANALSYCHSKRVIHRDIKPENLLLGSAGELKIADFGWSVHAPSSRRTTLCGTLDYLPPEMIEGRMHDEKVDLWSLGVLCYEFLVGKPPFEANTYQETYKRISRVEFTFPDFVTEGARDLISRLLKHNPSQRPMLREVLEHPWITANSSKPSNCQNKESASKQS
T24 sequence (P27361 whole entry): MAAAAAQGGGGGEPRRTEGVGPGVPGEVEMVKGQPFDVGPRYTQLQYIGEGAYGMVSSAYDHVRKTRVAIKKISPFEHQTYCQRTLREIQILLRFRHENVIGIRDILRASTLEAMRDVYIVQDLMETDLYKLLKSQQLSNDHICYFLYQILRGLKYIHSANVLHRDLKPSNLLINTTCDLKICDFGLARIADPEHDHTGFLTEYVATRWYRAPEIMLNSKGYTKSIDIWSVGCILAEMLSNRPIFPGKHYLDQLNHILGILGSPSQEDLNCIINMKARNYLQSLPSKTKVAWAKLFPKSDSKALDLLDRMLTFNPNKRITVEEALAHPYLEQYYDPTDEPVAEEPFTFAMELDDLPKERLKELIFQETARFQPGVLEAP

## CCN1CCN(Cc2cc(C(=O)Nc3ccc4[nH]c(-c5ccc6cn[nH]c6c5)nc4c3)cc(C(F)(F)F)c2)CC1 [Compound 8r, N-(2-(1H-indazol-6-yl)-1H-benzo[di]imidazol-5-yl)-3-((4-ethylpiperazin-1-yl)methyl)-5-(trifluoromethyl)benzamide]
[1]
  inhibition at 1 µM: 7.34%
[2]
  % Inhibition: 88.0%
[3]
  inhibition at 1 µM: 18%
[4]
  inhibition at 1 µM: 7.5%
[5]
  inhibition at 1 µM: 17.5%
[6]
  inhibition at 1 µM: 6.01%
[7]
  inhibition at 1 µM: 6.64%
[8]; FLT3 (Y591_V592ins[…]), single dose 1 μM
  inhibition at 1 µM: 90.9%
[8]; read-out: IC50 FLT3 (Y591_V592 ins VDFREYEYD)
  IC50: 49.5 nM
[9]; CAMKK1, single dose 1 μM
  inhibition at 1 µM: 32.5%
[9]; Table 4
  IC50: 395 nM
[10]
  inhibition at 1 µM: 3.09%
[11]
  inhibition at 1 µM: 0.531%
[12]
  inhibition at 1 µM: 0%
[13]
  inhibition at 1 µM: 7.3%
[14]
  inhibition at 1 µM: 6.42%
[15]
  inhibition at 1 µM: 0.274%
[16]; TRKC, single dose 1 μM
  inhibition at 1 µM: 48.3%
[16]; Table 4
  IC50: 1520 nM
[17]
  inhibition at 1 µM: 1%
[18]
  inhibition at 1 µM: 7.47%
[19]; ABL1, single dose 1 μM
  inhibition at 1 µM: 18.4%
[19]; Table 4
  IC50: 3090 nM
[20]
  inhibition at 1 µM: 6.14%
[21]
  IC50: 24.8 nM
[21]; FLT3 (R595_E596insEY), single dose 1 μM
  inhibition at 1 µM: 93.9%
[22]
  inhibition at 1 µM: 19%
[22]; read-out: IC50 c-Kit, Table 4
  IC50: 4570 nM
[23]
  inhibition at 1 µM: 1.94%
[24]
  inhibition at 1 µM: 9.76%
[25]
  inhibition at 1 µM: 0%
[26]
  inhibition at 1 µM: 1.88%
[27]
  inhibition at 1 µM: 7.25%
[28]
  % Inhibition: 88.0%
[29]
  inhibition at 1 µM: 6.99%
[30]
  inhibitory activity for most other kinases: less than 20%
[31]
  inhibition at 1 µM: 7.4%
[32]
  inhibition at 1 µM: 6.53%
other
  melting point: 265 to 267 °C
[33]
  inhibition at 1 µM: 7.12%
[34]
  inhibition at 1 µM: 5.39%
[35]
  inhibition at 1 µM: 0%
[36]
  inhibition at 1 µM: 7.4%
[37]
  inhibition at 1 µM: 5.69%
